For one assay, the target named is T1, IL-17A : IL-17RA binding (Homo sapiens, UniProt Q16552, K93Q).
T1 construct: Name: IL-17A-Flag
Description: IL-17A(FLAG-tagged):IL-17RA(His-tagged) binding disruption Eu-HTRF assay, Protocol 1. To be noted: FLAG-IL-17A 2.5 nM at 2x final concentration; average if tested more than once. The text has this:
An antibody directed against the FLAG tag of IL-17A (SEQ ID NO: 1) is labeled with the HTRF donor chromophore (Europium-cryptate). IL-17A is present as a dimer that is “locked into” this quaternary structure due to the formation of loop-spanning […] disulfide bridges. The construct of IL-17RA used in the assay excludes the […] portion of the receptor and is fused to a C-terminal 10×His tag (SEQ ID NO:2). An antibody directed against the His tag of the IL-17RA chimera is labeled with the HTRF acceptor chromophore (“D2”). The fluorescence-resonance energy transfer (FRET) depends on the vicinity of the donor chromophore to the acceptor, and interruption of the binding between the IL-17A and IL-17RA causes the reduction/loss of FRET. Therefore, this assay allows to evaluate the compound effect on the binding IL-17A and IL-17RA by monitoring the fluorescence intensity of donor vs acceptor. The assay was run using either Protocol 1 or Protocol 2 as described below.
Protocol 1. 40 nl of 2-fold serial diluted compound solution for total 22 dilution points is added into each well of a 1536-well, white, low-volume, non-binding plate (Greiner #782904), then 2 μl of FLAG tagged IL-17A at 2× final concentration (2.5 nM) in solution of PBS+0.01% Triton-X100 is added to each well. The assay plate is briefly centrifuged then incubated for 1 h at rt. A mixed solution is prepared containing 2×5 nM 10HIS×IL-17RA, 2×2.5 nM Eu-anti-FLAG (CISBIO), 2×5 nM D2-anti-HIS (CISBIO) in PBS+0.01% Triton-X100+200 mM Potassium Fluoride (Sigma 60238) and 2 μl of mix is added to each well of the assay plate. The plate is briefly centrifuged then incubated for 2 h at rt. The HTRF intensities at the wavelength of donor (620 nm) and acceptor (665 nm) are measured using BMG Pherastar. The ratio between intensities at two wavelengths is calculated and plotted against the compound concentration and the data is fitted to a one-site competition model to yield IC50 of the compound.
(In general: TR-FRET usually uses a lanthanide donor and a delayed reading to cut background.)

Assay [1] has as its system IL-17A-induced G-CSF production in human normal keratinocyte (NHK). The experiment in a line: NHK assay: IL-17A-induced G-CSF production in normal human keratinocytes. It counts as cell-based. The settings on record: Homo sapiens, Keratinocyte, 24 h, IL-17A 5 ng/mL, average if tested more than once. Here is the method: IL-17A acts directly on keratinocytes through binding to dimeric receptor IL-17RA/RC and drives the production of a number of inflammatory mediators known to be elevated in psoriasis lesional tissue. IL-17A small molecule inhibitors that block the IL-17A to interact with IL-17R would inhibit the IL-17A signaling in its targeted cells such as keratinocytes. The compound functional activity is evaluated for its impact on IL-17A-induced G-CSF production in human normal keratinocyte (NHK).
Adult normal human keratinocytes are cultured in keratinocyte growth medium (Lonza) in a flask till reaching ˜90% confluence, then cells are transferred to a 384-well plate at density of 3000-4000 cell/well. Recombinant human IL-17A (Gibco PHC9174) is pre-incubated with titrated compound or DMSO for 1 h at rt then added to the cell culture plate. The final concentration of IL-17A is 5 ng/mL and DMSO is 0.2%, in the culture containing 5% FBS. Cells are cultured/treated for 24 h at 37° C. Supernatants are collected and G-CSF production is measured through HTRF technology using Human G-CSF Kit (CisBio). G-CSF concentration was extrapolated from the standard curve and IC50 is determined using GraphPad Prism. Cell viability is also evaluated using CellTiter-Glo kit (Promega) and effect of compound on cell viability is compared to DMSO control.

Some results are limits rather than exact numbers.

Drawing on patent US20240376085A1 (Janssen Pharmaceutica NV, priority 2021, published 2024), this text covers IC50 for 15 molecules.

As a reminder, the IC50 is the point on the concentration scale where inhibition reaches its midpoint.

T1 sequence (Q16552 with tags, fused parts or gaps K93Q): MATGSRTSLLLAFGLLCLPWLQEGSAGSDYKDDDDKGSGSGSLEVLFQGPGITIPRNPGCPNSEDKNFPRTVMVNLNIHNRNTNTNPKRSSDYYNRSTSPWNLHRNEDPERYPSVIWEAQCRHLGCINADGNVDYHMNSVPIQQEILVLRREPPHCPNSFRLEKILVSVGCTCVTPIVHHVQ

In the case of `CC(C)n1ncnc1C(=O)NC(CC(C)(C)C(F)(F)F)c1nc2cc([C@@H](C)NC(=O)CCC(F)(F)F)ccc2[nH]1` (single isomer, unassigned) [Example 196, 1-Isopropyl-N—((S*)-4,4,4-trifluoro-3,3-dimethyl-1-(5-((R)-1-(4,4,4-trifluorobutanamido)ethyl)-1H-benzo[d]imidazol-2-yl)butyl)-1H-1,2,4-triazole-5-carboxamide], the IC50 (at IL-17A : IL-17RA binding; in assay [1]) was greater than 100 nM in each case.
For the molecule `CC(C)n1nccc1C(=O)N[C@H](c1nc2ccc([C@H](NC(=O)CC3CC(F)(F)C3)C3CC3)cc2[nH]1)C1CCCCO1` (single isomer, unassigned) [Example 253, N—((R)-(6-((R)-Cyclopropyl(2-(3,3-difluorocyclobutyl)acetamido)methyl)-1H-benzo[d]imidazol-2-yl)((R*)-tetrahydro-2H-pyran-2-yl)methyl)-1-isopropyl-1H-pyrazole-5-carboxamide], the IC50 (on IL-17A : IL-17RA binding; in assay [1]) was greater than 100 nM each time.
Turning to `C[C@@H](NC(=O)CCC(F)(F)F)c1ccc2[nH]c([C@@H](NC(=O)c3cn(CC4CC(F)(F)C4(F)F)nn3)C3CCC(F)(F)CC3)nc2c1` (stereo partly drawn) [Example 84, N—((S)-(4,4-Difluorocyclohexyl)(5-((R)-1-(4,4,4-trifluorobutanamido)ethyl)-1H-benzo[d]imidazol-2-yl)methyl)-1-((2,2,3,3-tetrafluorocyclobutyl)methyl)-1H-1,2,3-triazole-4-carboxamide], the IC50 (on IL-17A : IL-17RA binding; in assay [1]) was greater than 100 nM throughout.
For `C[C@@H](NC(=O)CCC(F)(F)F)c1ccc2[nH]c([C@@H](NC(=O)c3cnn4c3CCC4)C3CCC(F)(F)CC3)nc2c1` [Example 212, N—((S)-(4,4-Difluorocyclohexyl)(5-((R)-1-(4,4,4-trifluorobutanamido)ethyl)-1H-benzo[d]imidazol-2-yl)methyl)-5,6-dihydro-4H-pyrrolo[1,2-b]pyrazole-3-carboxamide], the IC50 (at IL-17A : IL-17RA binding; in assay [1]) was greater than 100 nM each time.
Consider `COCCn1nncc1C(=O)N[C@H](c1nc2cc([C@@H](C)NC(=O)CCC(F)(F)F)ccc2[nH]1)C1CCC(F)(F)CC1` [Example 15, N—[(S)-(4,4-Difluorocyclohexyl)-[6-[(1R)-1-(4,4,4-trifluorobutanoylamino)ethyl]-1H-benzimidazol-2-yl]methyl]-3-(2-methoxyethyl)triazole-4-carboxamide], for which the IC50 (on IL-17A : IL-17RA binding; in assay [1]) was greater than 100 nM each time.
Turning to `CC(C)CCn1ncc(C(=O)N[C@H](c2nc3cc([C@@H](C)NC(=O)CCC(F)(F)F)ccc3[nH]2)C2CCC(F)(F)CC2)c1C(C)C` [Example 11, N—[(S)-(4,4-Difluorocyclohexyl)-[6-[(1R)-1-(4,4,4-trifluorobutanoylamino)ethyl]-1H-benzimidazol-2-yl]methyl]-1-isopentyl-5-isopropyl-pyrazole-4-carboxamide], the IC50 (at IL-17A : IL-17RA binding; in assay [1]) was greater than 100 nM in each case.
Regarding `C[C@@H](NC(=O)CCC(F)(F)F)c1ccc2[nH]c([C@@H](NC(=O)c3cnnn3CC3CC3)C3CCC(F)(F)CC3)nc2c1` [Example 9, 3-(Cyclopropylmethyl)-N—[(S)-(4,4-difluorocyclohexyl)-[6-[(1R)-1-(4,4,4-trifluorobutanoylamino)ethyl]-1H-benzimidazol-2-yl]methyl]triazole-4-carboxamide], the IC50 (on IL-17A : IL-17RA binding; in assay [1]) was greater than 100 nM in each case.
Consider `CC(CC(=O)N[C@@H](c1ccc2nc([C@H](CC(C)(C)C(F)(F)F)NC(=O)c3nonc3C3CC3)[nH]c2c1)C1CC1)C(F)(F)F` (single isomer, unassigned) [Example 181, 4-Cyclopropyl-N—((S)-1-(6-((R)-cyclopropyl((R*)-4,4,4-trifluoro-3-methylbutanamido)methyl)-1H-benzo[d]imidazol-2-yl)-4,4,4-trifluoro-3,3-dimethylbutyl)-1,2,5-oxadiazole-3-carboxamide], for which the IC50 (on IL-17A : IL-17RA binding; in assay [1]) was less than 50 nM in each case.
On to `C[C@@H](NC(=O)CCC(F)(F)F)c1ccc2[nH]c([C@@H](NC(=O)c3cnnn3CC(F)(F)F)C3CCC(F)(F)CC3)nc2c1` [Example 23, N—[(S)-(4,4-Difluorocyclohexyl)-[6-[(1R)-1-(4,4,4-trifluorobutanoylamino)ethyl]-1H-benzimidazol-2-yl]methyl]-3-(2,2,2-trifluoroethyl)triazole-4-carboxamide], for which the IC50 (on IL-17A : IL-17RA binding; in assay [1]) was greater than 100 nM in each case.
With `C[C@@H](NC(=O)CCC(F)(F)F)c1ccc2[nH]c([C@@H](NC(=O)c3cn(CC4CC4)nn3)C3CCC(F)(F)CC3)nc2c1` [Example 10, 1-(Cyclopropylmethyl)-N—[(S)-(4,4-difluorocyclohexyl)-[6-[(1R)-1-(4,4,4-trifluorobutanoylamino)ethyl]-1H-benzimidazol-2-yl]methyl]triazole-4-carboxamide], the IC50 (at IL-17A : IL-17RA binding; in assay [1]) was greater than 100 nM throughout.
On to `C[C@@H](NC(=O)CCC(F)(F)F)c1ccc2[nH]c(C(CC(C)(C)C(F)(F)F)NC(=O)c3cnn(CC4CC4)n3)nc2c1` (single isomer, unassigned) [Example 191, 2-(Cyclopropylmethyl)-N—((R*)-4,4,4-trifluoro-3,3-dimethyl-1-(5-((R)-1-(4,4,4-trifluorobutanamido)ethyl)-1H-benzo[d]imidazol-2-yl)butyl)-2H-1,2,3-triazole-4-carboxamide], for which the IC50 (at IL-17A : IL-17RA binding; in assay [1]) was greater than 100 nM in each case.
As for `C[C@@H](NC(=O)CCC(F)(F)F)c1ccc2[nH]c([C@@H](NC(=O)c3cnnn3CC(F)F)C3CCC(F)(F)CC3)nc2c1` [Example 38, N—[(S)-(4,4-Difluorocyclohexyl)-[6-[(1R)-1-(4,4,4-trifluorobutanoylamino)ethyl]-1H-benzimidazol-2-yl]methyl]-3-(2,2-difluoroethyl)triazole-4-carboxamide], the IC50 (on IL-17A : IL-17RA binding; in assay [1]) was greater than 100 nM each time.
On to `C[C@@H](NC(=O)CCC(F)(F)F)c1ccc2[nH]c([C@@H](NC(=O)C3(F)CC3)C3CCC(F)(F)CC3)nc2c1` [Example 96, N—((S)-(4,4-Difluorocyclohexyl)(5-((R)-1-(4,4,4-trifluorobutanamido)ethyl)-1H-benzo[d]imidazol-2-yl)methyl)-1-fluorocyclopropane-1-carboxamide], for which the IC50 (at IL-17A : IL-17RA binding; in assay [1]) was greater than 100 nM in each case.
In the case of `CC(C)n1nccc1C(=O)N[C@H](c1nc2ccc([C@H](NC(=O)CC3CC(F)(F)C3)C3CC3)cc2[nH]1)[C@@H]1CCCCO1` (relative stereo) [Example 250, N—((R*)-(6-((R)-Cyclopropyl(2-(3,3-difluorocyclobutyl)acetamido)methyl)-1H-benzo[d]imidazol-2-yl)((S*)-tetrahydro-2H-pyran-2-yl)methyl)-1-isopropyl-1H-pyrazole-5-carboxamide], the IC50 (at IL-17A : IL-17RA binding; in assay [1]) was 50 to 100 nM each time.
With `CC(C)c1nnsc1C(=O)N[C@H](c1nc2cc([C@@H](C)NC(=O)CCC(F)(F)F)ccc2[nH]1)C1CCC(F)(F)CC1` [Example 188, N—((S)-(4,4-Difluorocyclohexyl)(5-((R)-1-(4,4,4-trifluorobutanamido)ethyl)-1H-benzo[d]imidazol-2-yl)methyl)-4-isopropyl-1,2,3-thiadiazole-5-carboxamide], the IC50 (on IL-17A : IL-17RA binding; in assay [1]) was greater than 100 nM in each case.
